Reference: US20240269139A1, “COMPOUNDS FOR TARGETED PROTEIN DEGRADATION OF KINASES” (DANA-FARBER CANCER INSTITUTE, INC., priority 2020, published 2024)
Where two headings read alike, the source gives them in different places.

Tests used:
Type in all cases: cell-based
[1] = biological target: protein kinases (human kinome) (Homo sapiens, UniProt Q92918)
[2] = biological target: protein kinases (human kinome) (Homo sapiens, UniProt O14874); settings: BCKDK (O14874)
[3] = biological target: protein kinases (human kinome) (Homo sapiens, UniProt P49674); settings: CSNK1E P49674
[4] = biological target: T1, protein kinases (human kinome) (Homo sapiens, UniProt O00444)
T1 sequence (O00444 1-970): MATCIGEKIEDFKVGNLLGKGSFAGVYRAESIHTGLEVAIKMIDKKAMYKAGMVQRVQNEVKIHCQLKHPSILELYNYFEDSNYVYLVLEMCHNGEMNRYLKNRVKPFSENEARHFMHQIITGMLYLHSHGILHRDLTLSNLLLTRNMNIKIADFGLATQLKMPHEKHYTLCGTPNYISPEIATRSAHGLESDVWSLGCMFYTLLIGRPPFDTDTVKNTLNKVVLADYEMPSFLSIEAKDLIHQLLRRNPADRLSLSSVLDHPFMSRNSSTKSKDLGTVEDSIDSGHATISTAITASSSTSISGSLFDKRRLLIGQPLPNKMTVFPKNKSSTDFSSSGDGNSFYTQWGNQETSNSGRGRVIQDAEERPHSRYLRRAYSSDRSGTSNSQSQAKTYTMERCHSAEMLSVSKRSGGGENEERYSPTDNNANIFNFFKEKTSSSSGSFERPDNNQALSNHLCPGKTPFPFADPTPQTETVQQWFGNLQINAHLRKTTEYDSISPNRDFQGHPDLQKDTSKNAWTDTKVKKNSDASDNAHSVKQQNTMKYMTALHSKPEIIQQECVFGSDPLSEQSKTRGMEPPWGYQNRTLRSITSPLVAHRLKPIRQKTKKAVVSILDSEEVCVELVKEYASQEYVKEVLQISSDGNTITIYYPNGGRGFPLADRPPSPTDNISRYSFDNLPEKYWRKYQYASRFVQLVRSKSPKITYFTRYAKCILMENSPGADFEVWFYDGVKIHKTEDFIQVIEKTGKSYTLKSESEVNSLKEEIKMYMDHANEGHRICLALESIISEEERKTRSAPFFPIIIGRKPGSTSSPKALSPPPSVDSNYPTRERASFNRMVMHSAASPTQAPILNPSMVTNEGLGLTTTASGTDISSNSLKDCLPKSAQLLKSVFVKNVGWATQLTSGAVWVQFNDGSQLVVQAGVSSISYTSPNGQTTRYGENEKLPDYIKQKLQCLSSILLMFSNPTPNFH

[5] = biological target: protein kinases (human kinome) (Homo sapiens, UniProt Q9BVS4); settings: RIOK2 Q9BVS4
[6] = experiment wp084, direction down
[7] = Accession O00444, experiment wp137, direction down
[8] = PLK4 (O00444), experiment wp137
[9] = experiment wp147, 4 uM, direction down
[10] = Accession O00444, experiment wp131, direction down

Chain of protein kinases (human kinome) (Homo sapiens, UniProt P49674) (P49674 whole entry): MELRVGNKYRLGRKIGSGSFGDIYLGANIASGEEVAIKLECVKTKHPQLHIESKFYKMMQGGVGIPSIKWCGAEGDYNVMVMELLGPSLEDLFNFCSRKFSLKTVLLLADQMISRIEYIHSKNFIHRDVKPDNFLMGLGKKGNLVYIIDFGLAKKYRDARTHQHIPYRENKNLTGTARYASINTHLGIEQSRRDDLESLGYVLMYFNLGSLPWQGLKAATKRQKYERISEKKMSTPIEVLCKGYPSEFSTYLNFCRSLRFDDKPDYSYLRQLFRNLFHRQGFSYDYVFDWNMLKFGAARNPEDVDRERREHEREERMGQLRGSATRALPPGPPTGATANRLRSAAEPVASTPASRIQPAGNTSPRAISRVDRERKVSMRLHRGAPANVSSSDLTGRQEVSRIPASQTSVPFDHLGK
Chain of protein kinases (human kinome) (Homo sapiens, UniProt Q92918) (Q92918 whole entry): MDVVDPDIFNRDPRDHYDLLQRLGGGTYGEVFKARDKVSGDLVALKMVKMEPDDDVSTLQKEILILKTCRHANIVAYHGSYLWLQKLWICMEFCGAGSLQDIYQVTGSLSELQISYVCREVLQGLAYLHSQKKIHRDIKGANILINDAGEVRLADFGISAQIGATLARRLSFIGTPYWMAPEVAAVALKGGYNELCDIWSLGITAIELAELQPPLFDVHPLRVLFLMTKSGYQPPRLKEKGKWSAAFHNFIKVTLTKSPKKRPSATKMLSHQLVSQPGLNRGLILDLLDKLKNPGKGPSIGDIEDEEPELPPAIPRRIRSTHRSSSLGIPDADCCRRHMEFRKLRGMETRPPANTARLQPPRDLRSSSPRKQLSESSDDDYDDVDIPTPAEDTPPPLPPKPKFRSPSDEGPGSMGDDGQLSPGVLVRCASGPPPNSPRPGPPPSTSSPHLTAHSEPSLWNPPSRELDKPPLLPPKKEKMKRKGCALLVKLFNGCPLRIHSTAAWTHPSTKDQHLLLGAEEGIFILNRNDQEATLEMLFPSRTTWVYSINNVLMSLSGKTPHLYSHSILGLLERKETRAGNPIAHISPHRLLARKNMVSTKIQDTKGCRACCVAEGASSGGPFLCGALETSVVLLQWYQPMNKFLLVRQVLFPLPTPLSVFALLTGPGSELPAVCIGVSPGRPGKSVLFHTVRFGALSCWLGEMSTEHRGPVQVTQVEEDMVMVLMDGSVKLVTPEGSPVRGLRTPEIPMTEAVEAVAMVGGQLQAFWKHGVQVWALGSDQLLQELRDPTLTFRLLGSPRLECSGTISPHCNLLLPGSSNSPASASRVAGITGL
Chain of protein kinases (human kinome) (Homo sapiens, UniProt Q9BVS4) (Q9BVS4 whole entry): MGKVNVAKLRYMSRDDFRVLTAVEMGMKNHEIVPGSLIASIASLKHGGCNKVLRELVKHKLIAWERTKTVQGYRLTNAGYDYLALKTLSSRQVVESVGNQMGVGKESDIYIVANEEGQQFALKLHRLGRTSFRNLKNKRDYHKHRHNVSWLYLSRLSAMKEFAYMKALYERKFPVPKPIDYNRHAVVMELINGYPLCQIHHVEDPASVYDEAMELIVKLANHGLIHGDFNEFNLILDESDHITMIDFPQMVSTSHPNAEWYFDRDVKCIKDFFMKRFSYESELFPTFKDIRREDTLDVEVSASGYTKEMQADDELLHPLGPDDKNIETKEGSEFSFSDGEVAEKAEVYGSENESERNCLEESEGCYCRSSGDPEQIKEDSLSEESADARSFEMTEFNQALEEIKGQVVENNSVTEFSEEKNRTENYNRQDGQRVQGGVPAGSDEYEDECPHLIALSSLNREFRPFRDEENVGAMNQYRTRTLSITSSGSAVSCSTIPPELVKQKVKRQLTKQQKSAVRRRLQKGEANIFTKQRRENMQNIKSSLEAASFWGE

SMILES: Cc1ccc(NC(=O)c2cccc(C(F)(F)F)c2)cc1N1Cc2cnc(Nc3ccc(N4CCN(CCCOc5cccc6c5C(=O)N(C5CCC(=O)NC5=O)C6=O)CC4)nc3)nc2N(C)C1=O (centres unmarked) [DB0662]
- logFC MAP4K1 (Q92918) ([1]; experiment wp168): −0.4067

SMILES: Cc1ccc(NC(=O)c2cccc(C(F)(F)F)c2)cc1N1Cc2cnc(Nc3ccc(N4CCN(Cc5cn(CCCCCOc6cccc7c6C(=O)N(C6CCC(=O)NC6=O)C7=O)nn5)CC4)nc3)nc2N(C)C1=O (centres unmarked) [DB0646, N-(3-(7-((6-(4-((1-(5-((2-(2,6-Dioxopiperidin-3-yl)-1,3-dioxoisoindolin-4-yl)oxy)pentyl)-1H-1,2,3-triazol-4-yl)methyl)piperazin-1-v)pyridin-3-yl)amino)-1-methyl-2-oxo-1,4-dihydropyrimido[4,5-d]pyrimidin-3(2H)-yl)-4-methylphenyl)-3-(trifluoromethyl)benzamide]
- logFC MAP4K1 (Q92918) ([1]; experiment wp045): −0.4789
- logFC MAP4K1 (Q92918) ([1]; experiment wp152): −0.3638
- logFC MAP4K1 (Q92918) ([1]; experiment wp160, 4 hr): −0.3228
- logFC MAP4K1 (Q92918) ([1]; experiment wp160, 8 hr): −0.5785

SMILES: CN(C)C(=O)c1cc2cnc(Nc3ccc(N4CCN(CCCCNC(=O)COc5cccc6c5C(=O)N(C5CCC(=O)NC5=O)C6=O)CC4)cn3)nc2n1C1CCCC1 (centres unmarked) [BSJ.04.132]
- logFC ([2]; experiment wp084): −0.5188
- logFC [2, 6]: −0.5188

SMILES: Nc1ncc(-c2ccc(S(=O)(=O)N(CCCNC(=O)CCOCCOCCOCCOCCOCCNc3cccc4c3C(=O)N(C3CCC(=O)NC3=O)C4=O)C3CC3)cc2)cc1-c1ccc2c(c1)CCNC2=O (centres unmarked) [WH.10417.099]
- logFC ([3]; experiment wp056): −1.591
- logFC CSNK1E ([3]; experiment wp056): −1.591
- logFC ([3]; experiment wp103): −1.306
- logFC CSNK1E ([3]; experiment wp103): −1.306
- logFC ([3]; experiment wp105): −0.8305
- logFC CSNK1E ([3]; experiment wp105): −0.8305
- logFC ([3]; experiment wp107): −2.192
- logFC CSNK1E ([3]; experiment wp107): −2.192
- logFC ([3]; experiment wp172): −1.164
- logFC CSNK1E ([3]; experiment wp172): −1.164

SMILES: Nc1ncnc2c1c(-c1ccc(Oc3ccccc3)cc1)nn2[C@H]1CC[C@H](N2CCN(CCOCCNC(=O)CNc3cccc4c3C(=O)N(C3CCC(=O)NC3=O)C4=O)CC2)CC1 (some centres unmarked) [SB1.G.181]
- logFC ([3]; experiment wp071): −1.189
- logFC CSNK1E ([3]; experiment wp071): −1.189

SMILES: CC(C)S(=O)(=O)c1ccccc1Nc1nc(Nc2ccc(N3CCN(CCOCCOCCC(=O)NCCNc4cccc5c4CN(C4CCC(=O)NC4=O)C5=O)CC3)cc2)ncc1Cl (centres unmarked) [TL13.97]
- logFC PLK4 [4, 7]: −1.049
- logFC PLK4 [4, 8]: −1.049

SMILES: CC(C)(C)c1nc(-c2cccc(NS(=O)(=O)c3c(F)cccc3F)c2F)c(-c2ccnc(NCCOCCNC(=O)CCOCCOCCNc3cccc4c3C(=O)N(C3CCC(=O)NC3=O)C4=O)n2)s1 (centres unmarked) [DD.03.106]
- logFC ([2]; experiment wp137): −0.3275
- logFC ([2]; experiment wp137, direction down): −0.3275
- logFC ([2]; experiment wp147, 4 uM): −0.5831
- logFC [2, 9]: −0.5831

SMILES: CCc1cnn2c(N(Cc3ccc(N)nc3)C(=O)CCOCCOCCOCCNC(=O)CNc3cccc4c3C(=O)N(C3CCC(=O)NC3=O)C4=O)cc(N3CCCC[C@H]3CCO)nc12 (some centres unmarked) [MFH.5.115.2]
- logFC ([5]; experiment wp076): −0.8067
- logFC RIOK2 ([5]; experiment wp076): −0.8067

SMILES: CC(=O)c1c(C)c2cnc(Nc3ccc(N4CCN(CCOCCOCCOCCNC(=O)COc5cccc6c5C(=O)N(C5CCC(=O)NC5=O)C6=O)CC4)cn3)nc2n(C2CCCC2)c1=O (centres unmarked) [BSJ.03.123]
- logFC ([2]; experiment wp084): −0.4553
- logFC [2, 6]: −0.4553

SMILES: CS(=O)(=O)Nc1cccc(-c2csc3cnc(Nc4ccc(N5CCN(CCCCCOc6cccc7c6C(=O)N(C6CCC(=O)NC6=O)C7=O)CC5)cc4)nc23)c1 (centres unmarked) [DB0614, N-(3-(2-((4-(4-(5-((2-(2,6-Dioxopiperidin-3-yl)-1,3-dioxoisoindolin-4-yl)oxy)pentyl)piperazin-1-yl)phenyl)amino)thieno[3,2-d]pyrimidin-7-yl)phenyl)methanesulfonamide]
- logFC PLK4 ([4]; Accession O00444, experiment wp117, direction down): −0.5414
- logFC PLK4 (O00444) ([4]; experiment wp117): −0.5414

SMILES: CC(C)(C)c1nc(-c2cccc(NS(=O)(=O)c3c(F)cccc3F)c2F)c(-c2ccnc(NCCOCCNC(=O)CCOCCOCCNc3cccc4c3CN(C3CCC(=O)NC3=O)C4=O)n2)s1 (centres unmarked) [DD.03.107]
- logFC ([2]; experiment wp147, 4 uM): −1.113
- logFC [2, 9]: −1.113

SMILES: Cc1ncsc1-c1ccc([C@H](C)NC(=O)[C@@H]2C[C@@H](O)CN2C(=O)[C@@H](NC(=O)CCOCCOCCN2CCN(c3ccc(Nc4ncc(Cl)c(Nc5ccccc5S(=O)(=O)C(C)C)n4)cc3)CC2)C(C)(C)C)cc1 [FMF.06.098.1]
- logFC PLK4 [4, 10]: −0.7435
- logFC PLK4 (O00444) ([4]; experiment wp131): −0.7435

SMILES: CC(C)S(=O)(=O)c1ccccc1Nc1nc(Nc2ccc(N3CCN(CCOCCNC(=O)CNc4cccc5c4C(=O)N(C4CCC(=O)NC4=O)C5=O)CC3)cc2)ncc1Cl (centres unmarked) [SK.3.91]
- logFC ([5]; experiment wp016, 1 uM): −0.6319
- logFC RIOK2 ([5]; experiment wp016, 1 uM): −0.6319
- logFC ([5]; experiment wp103): −0.8311
- logFC RIOK2 ([5]; experiment wp103): −0.8311
- logFC ([5]; experiment wp105): −0.482
- logFC RIOK2 ([5]; experiment wp105): −0.482
- logFC ([5]; experiment wp107): −0.7393
- logFC RIOK2 ([5]; experiment wp107): −0.7393
- logFC ([5]; experiment wp133, 4 hr): −0.6476
- logFC RIOK2 ([5]; experiment wp133, 4 hr): −0.6476
- logFC ([5]; experiment wp160, 4 hr): −0.4416
- logFC RIOK2 ([5]; experiment wp160, 4 hr): −0.4416
- logFC PLK4 ([4]; Accession O00444, experiment wp103, direction down): −1.243
- logFC PLK4 ([4]; Accession O00444, experiment wp107, direction down): −1.036
- logFC PLK4 ([4]; Accession O00444, experiment wp133, 1 hr, direction down): −0.726
- logFC PLK4 ([4]; Accession O00444, experiment wp133, 2 hr, direction down): −1.523
- logFC PLK4 ([4]; Accession O00444, experiment wp133, 4 hr, direction down): −2.258
- logFC PLK4 ([4]; Accession O00444, experiment wp160, 2 hr, direction down): −0.9266
- logFC PLK4 ([4]; Accession O00444, experiment wp160, 4 hr, direction down): −1.169
- logFC PLK4 ([4]; PLK4 (O00444), experiment wp133, 1 hr): −0.726
- logFC PLK4 ([4]; PLK4 (O00444), experiment wp133, 2 hr): −1.523
- logFC PLK4 ([4]; PLK4 (O00444), experiment wp133, 4 hr): −2.258
- logFC PLK4 ([4]; PLK4 (O00444), experiment wp160, 2 hr): −0.9266
- logFC PLK4 ([4]; PLK4 (O00444), experiment wp160, 4 hr): −1.169
- logFC PLK4 (O00444) ([4]; experiment wp103): −1.243
- logFC PLK4 (O00444) ([4]; experiment wp107): −1.036
- logFC ([2]; experiment wp160, 1 hr): −0.8683
- logFC ([2]; experiment wp160, 1 hr, direction down): −0.8683
- logFC MAP4K1 (Q92918) ([1]; experiment wp016, 1 uM): −0.6677
- logFC MAP4K1 (Q92918) ([1]; experiment wp103): −0.5099
- logFC MAP4K1 (Q92918) ([1]; experiment wp107): −0.7036
- logFC MAP4K1 (Q92918) ([1]; experiment wp133, 4 hr): −0.5528
- logFC MAP4K1 (Q92918) ([1]; experiment wp160, 4 hr): −0.4817

SMILES: Cc1ccc(NC(=O)c2cccc(C(F)(F)F)c2)cc1N1Cc2cnc(Nc3ccc(N4CCN(CCCCC(=O)N[C@H](C(=O)N5C[C@H](O)C[C@H]5C(=O)N[C@@H](C)c5ccc(-c6scnc6C)cc5)C(C)(C)C)CC4)nc3)nc2N(C)C1=O [DB1113]
- logFC MAP4K1 (Q92918) ([1]; experiment wp168): −0.8463

SMILES: O=C1CCC(N2C(=O)c3cccc(NCCCCCCCCN4CCC(NC(=O)c5[nH]ncc5NC(=O)c5c(Cl)cccc5Cl)CC4)c3C2=O)C(=O)N1 (centres unmarked) [MFH.5.126.1]
- logFC ([5]; experiment wp076): −0.7874
- logFC RIOK2 ([5]; experiment wp076): −0.7874

SMILES: CC(C)S(=O)(=O)c1ccccc1Nc1nc(Nc2ccc(N3CCN(CCOCCOCCNC(=O)CNc4cccc5c4C(=O)N(C4CCC(=O)NC4=O)C5=O)CC3)cc2)ncc1Cl (centres unmarked) [TL12.186]
- logFC ([3]; experiment wp137): −0.4411
- logFC CSNK1E ([3]; experiment wp137): −0.4411
- logFC ([5]; experiment wp131): −0.9134
- logFC RIOK2 ([5]; experiment wp131): −0.9134
- logFC ([5]; experiment wp137): −0.7728
- logFC RIOK2 ([5]; experiment wp137): −0.7728
- logFC PLK4 [4, 10]: −1.559
- logFC PLK4 [4, 7]: −1.159
- logFC PLK4 [4, 8]: −1.159
- logFC PLK4 (O00444) ([4]; experiment wp131): −1.559
- logFC MAP4K1 (Q92918) ([1]; experiment wp131): −0.4581
- logFC MAP4K1 (Q92918) ([1]; experiment wp137): −0.6136
